Assay in all cases: relative viability (nuclei count vs DMSO), 5 days (fraction); higher = more cells survive
Compound in the experiment “Bleomycin + Luminespib”: CC1=C(N=C(N=C1N)[C@H](CC(=O)N)NC[C@@H](C(=O)N)N)C(=O)N[C@@H]([C@H](C2=CN=CN2)OC3C(C(C(C(O3)CO)O)O)OC4C(C(C(C(O4)CO)O)OC(=O)N)O)C(=O)N[C@H](C)[C@H]([C@H](C)C(=O)N[C@@H]([C@@H](C)O)C(=O)NCCC5=NC(=CS5)C6=NC(=CS6)C(=O)NCCC[S+](C)C)O [Bleomycin] + CCNC(=O)c1noc(-c2cc(C(C)C)c(O)cc2O)c1-c1ccc(CN2CCOCC2)cc1 [Luminespib] (partner 0.01 µM)
As to conditions: main component drawn. The procedure, abridged: (§1)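 After 5 days of treatment, lung cancer cells in 1536-well plates were fixed and stained in a single step (final 0.05% Triton X-100, 1% formaldehyde, 1 ug/ml Hoechst) and their nuclei counted on 4× images. Treatment had been applied by pin tool the day after seeding as one drug alone or as a fixed anchor-drug dose with five library-drug doses (not always all listed) in √10 steps. Relative viability is the nuclei count of treated wells divided by that of vehicle wells, and values are medians of duplicate plates.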

Compound in the experiment “Bleomycin + Phenformin”: CC1=C(N=C(N=C1N)[C@H](CC(=O)N)NC[C@@H](C(=O)N)N)C(=O)N[C@@H]([C@H](C2=CN=CN2)OC3C(C(C(C(O3)CO)O)O)OC4C(C(C(C(O4)CO)O)OC(=O)N)O)C(=O)N[C@H](C)[C@H]([C@H](C)C(=O)N[C@@H]([C@@H](C)O)C(=O)NCCC5=NC(=CS5)C6=NC(=CS6)C(=O)NCCC[S+](C)C)O [Bleomycin] + N=C(N)NC(=N)NCCc1ccccc1 [Phenformin] (partner 250 µM)
Conditions: main component drawn. A digest of the protocol:
as §1

Compound in the experiment “Bleomycin + Decitabine”: CC1=C(N=C(N=C1N)[C@H](CC(=O)N)NC[C@@H](C(=O)N)N)C(=O)N[C@@H]([C@H](C2=CN=CN2)OC3C(C(C(C(O3)CO)O)O)OC4C(C(C(C(O4)CO)O)OC(=O)N)O)C(=O)N[C@H](C)[C@H]([C@H](C)C(=O)N[C@@H]([C@@H](C)O)C(=O)NCCC5=NC(=CS5)C6=NC(=CS6)C(=O)NCCC[S+](C)C)O [Bleomycin] + Nc1ncn([C@H]2C[C@H](O)[C@@H](CO)O2)c(=O)n1 [Decitabine] (partner 2 µM)
Conditions: main component drawn. The procedure, abridged:
as §1

Compound in the experiment “Etoposide + Linsitinib”: COc1cc([C@@H]2c3cc4c(cc3[C@@H](O[C@@H]3O[C@@H]5CO[C@@H](C)O[C@H]5[C@H](O)[C@H]3O)[C@H]3COC(=O)[C@H]23)OCO4)cc(OC)c1O [Etoposide] + C[C@]1(O)C[C@@H](c2nc(-c3ccc4ccc(-c5ccccc5)nc4c3)c3c(N)nccn32)C1 [Linsitinib] (partner 1 µM)
A digest of the protocol: as §1

With NCI-H1650, the relative viability was determined as 0.172 in the experiment with Bleomycin + Luminespib (first compound 0.01 µM); 0.213 with Bleomycin + Luminespib (first compound 0.03162 µM); 0.213 with Bleomycin + Luminespib (first compound 0.1 µM); 0.18 in the experiment with Bleomycin + Luminespib (first compound 0.3162 µM); 0.188 with Bleomycin + Luminespib (first compound 1 µM); 0.293 in the experiment with Bleomycin + Phenformin (first compound 0.01 µM). Besides, the relative viability in the experiment with Bleomycin + Phenformin (first compound 0.03162 µM) was determined as 0.239; with Bleomycin + Phenformin (first compound 0.1 µM), 0.206; with Bleomycin + Phenformin (first compound 0.3162 µM) it was 0.114; with Bleomycin + Phenformin (first compound 1 µM), 0.149; with Bleomycin + Decitabine (first compound 0.01 µM) it was 0.295; with Bleomycin + Decitabine (first compound 0.03162 µM), 0.253. Besides, the relative viability with Bleomycin + Decitabine (first compound 0.1 µM) was determined as 0.163; with Bleomycin + Decitabine (first compound 0.3162 µM), 0.184; in the experiment with Bleomycin + Decitabine (first compound 1 µM) it was 0.146.

In the case of ChaGo-K-1, the relative viability with Bleomycin + Luminespib (first compound 0.01 µM) is 0.505; with Bleomycin + Luminespib (first compound 0.03162 µM), 0.476; with Bleomycin + Luminespib (first compound 0.1 µM), 0.502; with Bleomycin + Luminespib (first compound 0.3162 µM), 0.293; with Bleomycin + Luminespib (first compound 1 µM), 0.205; in the experiment with Bleomycin + Phenformin (first compound 0.01 µM), 0.383. Besides, the relative viability with Bleomycin + Phenformin (first compound 0.03162 µM) was 0.39; in the experiment with Bleomycin + Phenformin (first compound 0.1 µM) it was 0.384; in the experiment with Bleomycin + Phenformin (first compound 0.3162 µM), 0.297; with Bleomycin + Phenformin (first compound 1 µM), 0.217; with Bleomycin + Decitabine (first compound 0.01 µM), 0.492; in the experiment with Bleomycin + Decitabine (first compound 0.03162 µM), 0.506. The relative viability in the experiment with Bleomycin + Decitabine (first compound 0.1 µM) amounted to 0.476; in the experiment with Bleomycin + Decitabine (first compound 0.3162 µM), 0.433; in the experiment with Bleomycin + Decitabine (first compound 1 µM), 0.364.

For NCI-H1648, the relative viability with Bleomycin + Decitabine (first compound 0.01 µM) is 0.412; in the experiment with Bleomycin + Decitabine (first compound 0.03162 µM), 0.387; in the experiment with Bleomycin + Decitabine (first compound 0.1 µM) it was 0.466; with Bleomycin + Decitabine (first compound 0.3162 µM), 0.467; with Bleomycin + Decitabine (first compound 1 µM), 0.334.

Consider NCI-H1563, for which the relative viability with Bleomycin + Luminespib (first compound 0.01 µM) came to 0.512; with Bleomycin + Luminespib (first compound 0.03162 µM), 0.535; with Bleomycin + Luminespib (first compound 0.1 µM) it was 0.479; in the experiment with Bleomycin + Luminespib (first compound 0.3162 µM), 0.487; with Bleomycin + Luminespib (first compound 1 µM), 0.465; with Etoposide + Linsitinib (first compound 0.01 µM), 1.17. The relative viability worked out at 1.05 with Etoposide + Linsitinib (first compound 0.03162 µM); 0.957 with Etoposide + Linsitinib (first compound 0.1 µM); 0.673 with Etoposide + Linsitinib (first compound 0.3162 µM); 0.612 with Etoposide + Linsitinib (first compound 1 µM); 0.581 with Bleomycin + Phenformin (first compound 0.01 µM); 0.658 in the experiment with Bleomycin + Phenformin (first compound 0.03162 µM). In addition, the results for the relative viability with Bleomycin + Phenformin (first compound 0.1 µM), in the experiment with Bleomycin + Phenformin (first compound 0.3162 µM) and with Bleomycin + Phenformin (first compound 1 µM) were 0.64, 0.551 and 0.511, respectively.

On to A549, for which the relative viability with Etoposide + Linsitinib (first compound 0.01 µM) is 0.41; with Etoposide + Linsitinib (first compound 0.03162 µM), 0.584; in the experiment with Etoposide + Linsitinib (first compound 0.1 µM), 0.225; with Etoposide + Linsitinib (first compound 0.3162 µM) it was 0.262; with Etoposide + Linsitinib (first compound 1 µM), 0.0891; in the experiment with Bleomycin + Phenformin (first compound 0.01 µM), 0.143. The relative viability with Bleomycin + Phenformin (first compound 0.03162 µM) was 0.139; with Bleomycin + Phenformin (first compound 0.1 µM), 0.444; in the experiment with Bleomycin + Phenformin (first compound 0.3162 µM), 0.0518; in the experiment with Bleomycin + Phenformin (first compound 1 µM) it was 0.0392; with Bleomycin + Decitabine (first compound 0.01 µM), 0.234; with Bleomycin + Decitabine (first compound 0.03162 µM), 0.137. Moreover, the relative viability in the experiment with Bleomycin + Decitabine (first compound 0.1 µM) worked out at 0.218; with Bleomycin + Decitabine (first compound 0.3162 µM) it was 0.0867; with Bleomycin + Decitabine (first compound 1 µM), 0.0646.

Consider NCI-H522, for which the relative viability in the experiment with Bleomycin + Luminespib (first compound 0.01 µM) is 0.775; in the experiment with Bleomycin + Luminespib (first compound 0.03162 µM) it was 0.66; with Bleomycin + Luminespib (first compound 0.1 µM) it was 0.508; in the experiment with Bleomycin + Luminespib (first compound 0.3162 µM), 0.319; in the experiment with Bleomycin + Luminespib (first compound 1 µM) it was 0.414; with Bleomycin + Phenformin (first compound 0.01 µM), 0.561. The relative viability was found to be 0.585 in the experiment with Bleomycin + Phenformin (first compound 0.03162 µM); 0.493 in the experiment with Bleomycin + Phenformin (first compound 0.1 µM); 0.363 with Bleomycin + Phenformin (first compound 0.3162 µM); 0.416 with Bleomycin + Phenformin (first compound 1 µM); 0.736 with Bleomycin + Decitabine (first compound 0.01 µM); 0.777 with Bleomycin + Decitabine (first compound 0.03162 µM). Besides, the relative viability with Bleomycin + Decitabine (first compound 0.1 µM) worked out at 0.608; with Bleomycin + Decitabine (first compound 0.3162 µM), 0.405; with Bleomycin + Decitabine (first compound 1 µM), 0.399.

For the cell line NCI-H2170, the relative viability with Bleomycin + Luminespib (first compound 0.01 µM) was 0.604; with Bleomycin + Luminespib (first compound 0.03162 µM) it was 0.494; with Bleomycin + Luminespib (first compound 0.1 µM) it was 0.593; in the experiment with Bleomycin + Luminespib (first compound 0.3162 µM), 0.355; with Bleomycin + Luminespib (first compound 1 µM), 0.515; with Bleomycin + Phenformin (first compound 0.01 µM), 0.415. For the same cell line, the relative viability with Bleomycin + Phenformin (first compound 0.03162 µM) amounted to 0.426; with Bleomycin + Phenformin (first compound 0.1 µM) it was 0.422; with Bleomycin + Phenformin (first compound 0.3162 µM) it was 0.374; with Bleomycin + Phenformin (first compound 1 µM), 0.338; with Bleomycin + Decitabine (first compound 0.01 µM) it was 0.437; with Bleomycin + Decitabine (first compound 0.03162 µM) it was 0.42. The relative viability came to 0.39 with Bleomycin + Decitabine (first compound 0.1 µM), 0.32 with Bleomycin + Decitabine (first compound 0.3162 µM) and 0.271 with Bleomycin + Decitabine (first compound 1 µM).

Consider NCI-H1623, for which the relative viability was 0.396 with Bleomycin + Luminespib (first compound 0.01 µM); 0.474 with Bleomycin + Luminespib (first compound 0.03162 µM); 0.525 with Bleomycin + Luminespib (first compound 0.1 µM); 0.343 with Bleomycin + Luminespib (first compound 0.3162 µM); 0.31 in the experiment with Bleomycin + Luminespib (first compound 1 µM); 0.548 with Bleomycin + Phenformin (first compound 0.01 µM). Moreover, the relative viability in the experiment with Bleomycin + Phenformin (first compound 0.03162 µM) was 0.631; with Bleomycin + Phenformin (first compound 0.1 µM), 0.513; with Bleomycin + Phenformin (first compound 0.3162 µM), 0.442; with Bleomycin + Phenformin (first compound 1 µM), 0.333.

On to SW 900, for which the relative viability with Bleomycin + Luminespib (first compound 0.01 µM) worked out at 0.187; with Bleomycin + Luminespib (first compound 0.03162 µM), 0.166; with Bleomycin + Luminespib (first compound 0.1 µM), 0.199; with Bleomycin + Luminespib (first compound 0.3162 µM) it was 0.185; with Bleomycin + Luminespib (first compound 1 µM) it was 0.183; in the experiment with Bleomycin + Phenformin (first compound 0.01 µM), 0.592. Also, the relative viability with Bleomycin + Phenformin (first compound 0.03162 µM) came out at 0.447; with Bleomycin + Phenformin (first compound 0.1 µM), 0.335; in the experiment with Bleomycin + Phenformin (first compound 0.3162 µM) it was 0.11; with Bleomycin + Phenformin (first compound 1 µM), 0.16; with Bleomycin + Decitabine (first compound 0.01 µM), 0.377; with Bleomycin + Decitabine (first compound 0.03162 µM), 0.406. Also, the values for the relative viability in the experiment with Bleomycin + Decitabine (first compound 0.1 µM), with Bleomycin + Decitabine (first compound 0.3162 µM) and with Bleomycin + Decitabine (first compound 1 µM) were 0.334, 0.234 and 0.244, respectively.

As for IA-LM, the relative viability with Etoposide + Linsitinib (first compound 0.01 µM) is 0.584; with Etoposide + Linsitinib (first compound 0.03162 µM) it was 0.596; with Etoposide + Linsitinib (first compound 0.1 µM), 0.348; with Etoposide + Linsitinib (first compound 0.3162 µM) it was 0.506; in the experiment with Etoposide + Linsitinib (first compound 1 µM) it was 0.527.

CAL-12T: the relative viability turned out to be 0.493 with Bleomycin + Luminespib (first compound 0.01 µM); 0.555 with Bleomycin + Luminespib (first compound 0.03162 µM); 0.233 with Bleomycin + Luminespib (first compound 0.1 µM); 0.173 with Bleomycin + Luminespib (first compound 0.3162 µM); 0.143 with Bleomycin + Luminespib (first compound 1 µM); 0.791 in the experiment with Etoposide + Linsitinib (first compound 0.01 µM). The relative viability with Etoposide + Linsitinib (first compound 0.03162 µM) is 0.849; in the experiment with Etoposide + Linsitinib (first compound 0.1 µM), 0.619; in the experiment with Etoposide + Linsitinib (first compound 0.3162 µM) it was 0.597; in the experiment with Etoposide + Linsitinib (first compound 1 µM), 0.181; with Bleomycin + Phenformin (first compound 0.01 µM) it was 0.474; in the experiment with Bleomycin + Phenformin (first compound 0.03162 µM), 0.466. Moreover, the relative viability came to 0.297 with Bleomycin + Phenformin (first compound 0.1 µM), 0.175 with Bleomycin + Phenformin (first compound 0.3162 µM) and 0.163 with Bleomycin + Phenformin (first compound 1 µM).

Consider EBC-1, for which the relative viability came to 0.903 in the experiment with Etoposide + Linsitinib (first compound 0.01 µM); 0.942 with Etoposide + Linsitinib (first compound 0.03162 µM); 0.349 in the experiment with Etoposide + Linsitinib (first compound 0.1 µM); 0.788 with Etoposide + Linsitinib (first compound 0.3162 µM); 0.466 with Etoposide + Linsitinib (first compound 1 µM).

The values above are taken from the supplement of paper PMC10307832.
